These results are taken from EP0845478B1, “Reductive alkylation of glycopeptide antibiotics” (ELI LILLY AND COMPANY, priority 1996, dated 1998).

A short description of data set [1]: Solubility of the starting glycopeptide antibiotic (nucleus) in methanol in the presence of the copper salt, with pH. Format: physicochemical. The settings on record: stirred 15 min; for pH: pH after addition of glycopeptide nucleus (0.26 mmol) to copper salt in 50 mL methanol; for nucleus solubility in presence of salt: Glycopeptide nucleus (0.55 g, 0.26 mmol) added to copper salt (0.165 mmol) in 50 mL methanol. As for the experimental part:
(§1) The same copper salts were further evaluated for their solubility in methanol and for the solubility of the starting glycopeptide antibiotic in their presence. The procedure was as follows: the copper salt (0.165 mmol) was added to 50 mL methanol and stirred at ambient temperature for 15 min. Solubility data was recorded as well as the pH. […] Solubility and pH data was recorded.

A short description of data set [2]: Solubility of copper salts in methanol, with pH. Format: physicochemical. The settings on record: for pH: pH of copper salt (0.165 mmol) in 50 mL methanol after 15 min stirring, before nucleus is added; for Salt Solubility in MeOH: copper salt (0.165 mmol) in 50 mL methanol, stirred at ambient temperature for 15 min. As for the experimental part: as §1

SMILES strings stand for the structures. Entries after “also recorded” stand apart in the source; their conditions may differ.

Regarding `CCCCC(CC)C(=O)[O-].CCCCC(CC)C(=O)[O-].[Cu+2]` (centres unmarked) [Cu(2-ethylhexanoate)2], the pH was approximately 6.7 in data set [1] and 6.5 in data set [2].
With `O=C([O-])C(F)(F)F.O=C([O-])C(F)(F)F.[Cu+2]` [Cu(O2CCF3)2], in data set [1], the “nucleus solubility in presence of salt” value is given as “soluble, clear purple” and the pH worked out at 6.2. Moreover, in data set [2], the “Salt Solubility in MeOH” value was “soluble, clear lite blue” and the pH stood at 4.4.
Take `CC(=O)[O-].CC(=O)[O-].[Cu+2]` [Cu(OAc)2]: the figures for the pH in data set [1] and in data set [2] were approximately 6.7 and 6.5, respectively.
Consider `[Cu+2].[OH-].[OH-]` [Cu(OH)2], for which, in data set [1], the “nucleus solubility in presence of salt” value was “slightly, cloudy lite blue” and the pH worked out at 7.0. Moreover, in data set [2], the “Salt Solubility in MeOH” value is recorded as “nearly insoluble; also recorded: low, cloudy lite blue soln” and the pH is reported as 6.2.
Regarding `O=C([O-])CCCC1CCCCC1.O=C([O-])CCCC1CCCCC1.[Cu+2]` [Cu(cyclohexanebutyrate)2], in data set [1], the “nucleus solubility in presence of salt” value is given as “complete dissolution; also recorded: soluble, clear purple” and the pH is recorded as approximately 6.7. For the same compound, in data set [2], the “Salt Solubility in MeOH” value was “faint cloudiness, lite blue-green” and the pH is listed as 6.0.
In the case of `[Br][Cu][Br]` [CuBr2], in data set [1], the “nucleus solubility in presence of salt” value is listed as “soluble, clear purple” and the pH worked out at 5.9. In data set [2], the “Salt Solubility in MeOH” value is recorded as “soluble, clear yellow” and the pH is recorded as 2.8.
Consider `[Cl][Cu][Cl]` [CuCl2], for which, in data set [1], the “nucleus solubility in presence of salt” value was “slightly, cloudy purple” and the pH was 6.6. For the same compound, in data set [2], the “Salt Solubility in MeOH” value is reported as “soluble, clear colorless” and the pH was 3.2.
For the compound `[F][Cu][F]` [CuF2], in data set [1], the “nucleus solubility in presence of salt” value was “slightly, cloudy pink” and the pH was found to be 7.0. In addition, in data set [2], the “Salt Solubility in MeOH” value was “nearly insoluble; also recorded: low, cloudy white soln” and the pH is reported as 5.9.
For `O.O.O.O.O.O=S(=O)([O-])[O-].[Cu+2]` [CuSO4·5H2O], in data set [1], the “nucleus solubility in presence of salt” value is “slightly, cloudy purple” and the pH amounted to 6.2. Moreover, in data set [2], the “Salt Solubility in MeOH” value is on record as “soluble, clear colorless” and the pH amounted to 3.7.
